Blank lines part the entries; values can stand above or below the compound they belong to. Starred links: 1 amine or outer side, 2 acyl side, 3 side chain; linkers in the order of their positions; H or OH if unused. Non-standard residues stand in square brackets, D forms with d. Residues, ends and D or L forms follow the SMILES beside them. *: point of attachment. dBip = N[C@H](Cc1ccc(-c2ccccc2)cc1)C(=O)O; Oic = O=C(O)[C@@H]1C[C@@H]2CCCC[C@@H]2N1; Phe(4-Cl) = N[C@@H](Cc1ccc(Cl)cc1)C(=O)O; dPhe(4-Cl) = N[C@H](Cc1ccc(Cl)cc1)C(=O)O; Phe(4-I) = N[C@@H](Cc1ccc(I)cc1)C(=O)O; γGlu = O=C(O)[C@H](CCC(=O)[*:2])N[*:1]; NMeR = CN[C@@H](CCCNC(=N)N)C(=O)O; Tridecanoyl = CCCCCCCCCCCCC(=O)*; hArg = N=C(N)NCCCC[C@H](N)C(=O)O; Cha = N[C@@H](CC1CCCCC1)C(=O)O; NMeL = CN[C@@H](CC(C)C)C(=O)O; αMeL = CC(C)C[C@](C)(N)C(=O)O; αMeP = C[C@@]1(C(=O)O)CCCN1; Nle = CCCC[C@H](N)C(=O)O; AEEA = NCCOCCOCC(=O)O; Aib = CC(C)(N)C(=O)O
What was measured:
[1] = tested on: Rat Peritoneal Mast Cells
[2] = In vitro stability in rat liver homogenate; assay type: in vitro ADME; conditions: tissue homogenate
Method in brief: (§1)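 High resolution LC-MS of the supernatant gave remaining peptide. Samples came from 37° C. incubations of 5 μM apelin peptide in rat plasma or liver or kidney homogenate over 4 hr, stopped with methanol plus internal standard.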

[3] = In vitro stability in rat kidney homogenate; assay type: in vitro ADME; conditions: rat, tissue homogenate
Method in brief: as §1

[4] = In vitro stability in rat plasma; assay type: in vitro ADME
Method in brief: as §1

[5] = In vivo pharmacokinetics in rat; set-up: species or system Sprague-Dawley rats; conditions: Sprague-Dawley, rat, in vivo, sc, 0.5 mg/kg
Description: Evaluation of the in vivo pharmacokinetic profile of several pegylated and lipidated apelin polypeptides in rat was undertaken (FIGS. 9 and 10A-B). The apelin polypeptides were administered to Sprague-Dawley rats through subcutaneous (SC) administration and the pharmacokinetic profile for each polypeptide was subsequently evaluated. […] Blood samples collected over a 24 hr period were transferred into collection tubes containing potassium EDTA and stored on ice until processed. Plasma was obtained from blood by centrifugation. After transfer into a 96-well container, plasma samples were stored in a freezer maintained at approximately −80° C. Quantitative analysis of the apelin polypeptide in rat plasma samples was achieved using multiple reaction monitor (MRM) mode on a LC-MS/MS system.

rat APJ receptor = target: T1, rat APJ receptor (Rattus norvegicus, UniProt Q9JHG3); assay: [35S] GTPγS assay, rat APJ receptor; assay type: biochemical; conditions: read-out: EC50 Rat APJ Receptor
T1 construct: expressed in transfected cells
T1 sequence (Q9JHG3 1-377): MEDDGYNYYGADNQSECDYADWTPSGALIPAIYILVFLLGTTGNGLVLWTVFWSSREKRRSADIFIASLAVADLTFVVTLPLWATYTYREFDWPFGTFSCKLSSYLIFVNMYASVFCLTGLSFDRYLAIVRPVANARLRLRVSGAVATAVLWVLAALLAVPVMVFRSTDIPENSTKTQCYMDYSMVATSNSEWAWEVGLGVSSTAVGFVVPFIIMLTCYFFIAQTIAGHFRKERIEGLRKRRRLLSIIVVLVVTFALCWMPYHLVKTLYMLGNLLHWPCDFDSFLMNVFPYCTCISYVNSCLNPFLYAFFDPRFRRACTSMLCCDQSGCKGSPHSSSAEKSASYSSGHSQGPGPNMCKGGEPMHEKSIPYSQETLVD
Description: The membranes were incubated with modified peptides in the assay buffer. […] Bound [^35S] GTPγS was separated from free radiolabel by filtration. The filter bound radioactivity was determined by liquid scintillation counting.

liver homogenate = conditions: rat, 37° C., up to 4 hr

Compound: CCCC[C@H](NC(=O)[C@@H]1CCCN1C(=O)CNC(=O)[C@H](CCCCN)NC(=O)[C@H](Cc1c[nH]cn1)NC(=O)[C@H](CO)NC(=O)[C@H](CC(C)C)NC(=O)[C@H](CCCNC(=N)N)N(C)C(=O)[C@@H]1CCCN1C(=O)[C@H](CCCNC(=N)N)NC(=O)[C@H](CCC(N)=O)NC(=O)COCCOCCNC(=O)COCCOCCNC(=O)CC[C@H](NC(=O)CCC)C(=O)O)C(=O)N1CCC[C@H]1C(=O)N[C@@H](Cc1ccc(Cl)cc1)C(=O)O [SEQ ID NO: 491]
induction of histamine release from rat mast cells [1]: less mast cell degranulation activity

remaining at 4 h, 5 μM [2]: 10% | remaining at 4 h, 5 μM [3]: 13% | remaining at 4 h, 5 μM [4]: 83%
Compound: CCCCCCCCCCCCC(=O)N[C@@H](CCC(=O)NCCOCCOCC(=O)NCCOCCOCC(=O)N[C@@H](CCC(N)=O)C(=O)N[C@@H](CCCNC(=N)N)C(=O)N1CCC[C@H]1C(=O)N(C)[C@@H](CCCNC(=N)N)C(=O)N[C@@](C)(CC(C)C)C(=O)N[C@@H](CO)C(=O)N[C@@H](Cc1c[nH]cn1)C(=O)N[C@@H](CCCCN)C(=O)NCC(=O)N1[C@H](C(=O)N[C@@H](CCCC)C(=O)N2CCC[C@@]2(C)C(=O)N[C@@H](Cc2ccc(Cl)cc2)C(=O)O)C[C@@H]2CCCC[C@@H]21)C(=O)O [compound 376] ({Tridecanoyl-γGlu-AEEA-AEEA}-QRP[NMeR][αMeL]SHKG[Oic][Nle][αMeP][Phe(4-Cl)]-OH)
AUC(0-inf) [5]: 0.09 µM·h | half-life [5]: 1.48 h

Compound: {Acetyl-NH} Q R P [NMeArg] [Cha] S H K G [Oic] [Nle] [Aib] [4-Cl—F] {COOH} (Ac-QRP[NMeR][Cha]SHKG[Oic][Nle][Aib][Phe(4-Cl)]-OH) [SEQ ID NO: 92]
induction of histamine release from rat mast cells [1]: positive

Compound: CC(=O)N[C@H](CCCNC(=N)N)C(=O)N[C@@H](CCC(N)=O)C(=O)N[C@@H](CCCNC(=N)N)C(=O)N1CCC[C@H]1C(=O)N[C@@H](CCCCNC(=N)N)C(=O)N(C)[C@@H](CC(C)C)C(=O)N[C@@H](CO)C(=O)N[C@@H](Cc1c[nH]cn1)C(=O)N[C@@H](CCCCN)C(=O)NCC(=O)N1[C@H](C(=O)N[C@@H](Cc2ccc(I)cc2)C(=O)N2CCC[C@H]2C(=O)N[C@H](Cc2ccc(-c3ccccc3)cc2)C(=O)O)C[C@@H]2CCCC[C@@H]21 [compound 52] (Ac-[dR]QRP[hArg][NMeL]SHKG[Oic][Phe(4-I)]P[dBip]-OH)
EC50 (rat APJ receptor): 1.14 nM | EC50 [1]: 550 nM

not cleaved (liver homogenate): >90.0 % remaining at 4 hours
Compound: {H2} [MerPr] (10K mPEG acetamide) Q [NMehArg] P [NMeArg] [aMeLeu] S H K G P [Nle] P [4-Cl-F] {COOH}

Compound: CCCC[C@H](NC(=O)[C@@H]1C[C@@H]2CCCC[C@@H]2N1C(=O)CNC(=O)[C@H](CCCCN)NC(=O)[C@H](Cc1c[nH]cn1)NC(=O)[C@H](CO)NC(=O)[C@H](CC1CCCCC1)NC(=O)[C@H](CCCNC(=N)N)N(C)C(=O)[C@@H]1CCCN1C(=O)[C@H](CCCCNC(=N)N)NC(=O)[C@@H](CCC(N)=O)NC(C)=O)C(=O)N1CCC[C@H]1C(=O)N[C@H](Cc1ccc(Cl)cc1)C(=O)O [compound 55] (Ac-[dQ][hArg]P[NMeR][Cha]SHKG[Oic][Nle]P[dPhe(4-Cl)]-OH)
EC50 [1]: 8170 nM

Source: patent publication US11807693B2 (priority 2014, dated 2023)
